# Measurements: US20230121689A1, “CEPHALOSPORIN ANTIBACTERIAL COMPOUND AND PHARMACEUTICAL APPLICATION THEREOF” (priority 2020, published 2023)
# Where two headings read alike, the source gives them in different places.
# How the values were obtained:
# Assay type in all cases: cell-based
# [1] = test system: Carbapenem-resistant Acinetobacter baumannii (CRAB); experiment: Test Example 1: antibacterial activity test (MIC)
# Description: (§1) The test compounds were diluted in a gradient and used for an MIC assay on the test strains. The test compounds at an initial assay concentration of 32 μg/mL were diluted in a 2-fold gradient (11 concentration points in total), and two duplicate wells were set for each concentration. Additional wells without drug dosing were set as growth controls. The minimum inhibitory concentration (MIC) assay was performed with reference to the Clinical and Laboratory Standards Institute (CLSI) guidelines.
# (§2) After the frozen strains were subcultured, a single colony was picked and re-suspended in normal saline or sterile water in a tube. The bacterial suspension was vortexed and adjusted to 0.5 McF using a spectrophotometer at the wavelength of 530 nm. The bacterial solution was taken by a pipette, added to a culture medium, diluted and mixed well, and seeded to a bacterial assay plate.
# (§3) The 96-well plate was affixed with a disposable sealing film, shaken and mixed well, and visually observed using a plate reader. The minimum concentration of the compounds capable of inhibiting the growth of bacteria was defined as MIC as compared to the growth controls.
# [2] = test system: Carbapenem-resistant Enterobacteriaceae (CRE); experiment: Test Example 1: antibacterial activity test (MIC)
# Description: as §1, §2, §3
# [3] = test system: Carbapenem-resistant Pseudomonas aeruginosa (CRPA); experiment: Test Example 1: antibacterial activity test (MIC)
# Description: as §1, §2, §3
# [4] = test system: Carbapenem-resistant Acinetobacter baumannii (CRAB, Acinetobacter baumannii); experiment: Test Example 2: antibacterial activity test (MIC); details: ID-CAMHB, read-out: ID-CAMHB, MIC
# Description: (§4) 1. The test compounds were dissolved in sterile normal saline, vortexed for uniformly mixing, and diluted in a 2-fold dilution with the sterile normal saline (11 concentration points in total). The test concentration range was 32-0.031 μg/mL, and two duplicate wells were set for each concentration. Additional wells without drug dosing were set as growth controls. 2. 4 μL of the diluent was added to 196 μL of the bacterial suspension in a 96-well plate (the bacterial count in the bacterial suspension was 2-8×10^5 colony forming units/mL). 3.
# (§5) The minimum inhibitory concentration (MIC) assay was performed with reference to the Clinical and Laboratory Standards Institute (CLSI) guidelines.
# [5] = test system: Control Strain Pseudomonas aeruginosa ATCC 27853; experiment: Test Example 2: antibacterial activity test (MIC); details: ATCC27853, ID-CAMHB, ATCC 27853, read-out: ID-CAMHB, MIC
# Description: as §4, §5
# [6] = test system: Control strain Escherichia coli ATCC 25922; experiment: Test Example 2: antibacterial activity test (MIC); details: ATCC25922, ID-CAMHB, ATCC 25922, read-out: ID-CAMHB, MIC
# Description: as §4, §5
# [7] = test system: Carbapenem-resistant Enterobacteriaceae (CRE, Klebsiella pneumoniae); experiment: Test Example 2: antibacterial activity test (MIC); details: ID-CAMHB, read-out: ID-CAMHB, MIC
# Description: as §4, §5
# [8] = test system: Carbapenem-resistant Pseudomonas aeruginosa (CRPA, Pseudomonas aeruginosa); experiment: Test Example 2: antibacterial activity test (MIC); details: ID-CAMHB, read-out: ID-CAMHB, MIC
# Description: as §4, §5
# [9] = FDA-CDC AR-BANK #0036 (strB, OXA-65, OXA-24, strA, sul2)
# [10] = FDA-CDC AR-BANK #0052 (OXA-58, OXA-100, sul2)
# [11] = FDA-CDC AR-BANK #0063 (OXA-23, OXA-65, OXA-24, sul2)
# [12] = FDA-CDC AR-BANK #0070 (OXA-58, OXA-100, sul2)
# [13] = FDA-CDC AR-BANK #0101 (strB, OXA-65, OXA-24, strA, sul2)
# [14] = FDA-CDC AR-BANK #0361 (TEM-1; SHV-12; KPC-2)
# [15] = FDA-CDC AR-BANK #0362 (TEM-1; SHV-11; KPC-2)
# [16] = FDA-CDC AR-BANK #0363 (TEM-1; SHV-12; KPC-2)
# [17] = FDA-CDC AR-BANK #0438 (aph(3′)-Ia, dfrA12, KPC-3, OmpK35, oqxA, oqxB, SHV-11)
# [18] = FDA-CDC AR-BANK #0453 (KPC-3, OmpK35, oqxA, oqxB, SHV-11, TEM-1B)
# [19] = FDA-CDC AR-BANK #0439 (aac(6′)-Il, aadA1b, BCR1, IMP-18, OXA-50)
# [20] = FDA-CDC AR-BANK #0444 (aac(6′)-Il, dfrB5, OXA-4, tet(G), VIM-2)
# [21] = FDA-CDC AR-BANK #0457 (aadA6, VIM-2)
SMILES,"MIC [4, 9]","MIC [4, 10]","MIC [4, 11]","MIC [4, 12]","MIC [4, 13]",MIC ([1]; CRAB strain No. 100085),MIC ([1]; CRAB strain No. 100333),MIC ([1]; CRAB strain No. 110440),MIC ([1]; CRAB strain No. 110477),MIC ([1]; CRAB strain No. 110517),MIC ([2]; CRE strain No. 100109),MIC ([2]; CRE strain No. 100186),MIC ([2]; CRE strain No. 110502),MIC ([2]; CRE strain No. 110525),MIC ([2]; CRE strain No. 311277),MIC ([3]; CRPA strain No. 100110),MIC ([3]; CRPA strain No. 110163),MIC ([3]; CRPA strain No. 110224),MIC ([3]; CRPA strain No. 110358),MIC ([3]; CRPA strain No. 110390),also measured
CC(C)(O/N=C(\C(=O)N[C@@H]1C(=O)N2C(C(=O)[O-])=C(C[N+]3(CCCC[C@H](N)C(=O)O)CCCC3)CSC12)c1csc(N)n1)C(=O)O (stereo partly shown) [Compound 1],,,,,,> 32 µg/mL,> 32 µg/mL,> 32 µg/mL,> 32 µg/mL,> 32 µg/mL,> 32 µg/mL,> 32 µg/mL,> 32 µg/mL,> 32 µg/mL,> 32 µg/mL,16 µg/mL,> 32 µg/mL,32 µg/mL,> 32 µg/mL,> 32 µg/mL,
CC(=O)N(O)CC[N+]1(CC2=C(C(=O)O)N3C(=O)[C@@H](NC(=O)/C(=N\OC(C)(C)C(=O)O)c4csc(N)n4)[C@H]3SC2)CCCC1 [Compound 5],> 32 µg/mL,> 32 µg/mL,> 32 µg/mL,> 32 µg/mL,> 32 µg/mL,,,,,,,,,,,,,,,,"MIC [5]: > 32 µg/mL; MIC [6]: > 32 µg/mL; MIC [7, 14]: > 32 µg/mL; MIC [7, 15]: > 32 µg/mL; MIC [7, 16]: > 32 µg/mL; MIC [7, 17]: > 32 µg/mL; MIC [7, 18]: > 32 µg/mL; MIC [8, 19]: > 32 µg/mL; MIC ([8]; FDA-CDC AR-BANK #0441 (KPC-2)): > 32 µg/mL; MIC [8, 20]: > 32 µg/mL; MIC [8, 21]: > 32 µg/mL"
CON(CC[N+]1(CC2=C(C(=O)O)N3C(=O)[C@@H](NC(=O)/C(=N\OC(C)(C)C(=O)O)c4csc(N)n4)[C@H]3SC2)CCCC1)C(=O)c1ccc(O)c(O)c1Cl [Compound 3],,,,,,3 µg/mL,6 µg/mL,4 µg/mL,4 µg/mL,1 µg/mL,3 µg/mL,6 µg/mL,> 32 µg/mL,16 µg/mL,8 µg/mL,0.562 µg/mL,1 µg/mL,1 µg/mL,2 µg/mL,2 µg/mL,
CC(C)(O/N=C(\C(=O)N[C@@H]1C(=O)N2C(C(=O)O)=C(C[N+]3(CCN(O)C(=O)c4ccc(O)c(O)c4Cl)CCCC3)CS[C@H]12)c1csc(N)n1)C(=O)O [Compound 6],,,,,,3 µg/mL,6 µg/mL,4 µg/mL,3 µg/mL,1 µg/mL,2 µg/mL,1.5 µg/mL,32 µg/mL,4 µg/mL,8 µg/mL,0.063 µg/mL,0.5 µg/mL,0.625 µg/mL,4 µg/mL,2 µg/mL,
CC(C)(O/N=C(\C(=O)N[C@@H]1C(=O)N2C(C(=O)O)=C(C[N+]3(CCNC(=S)Nc4ccc(O)c(O)c4Cl)CCCC3)CS[C@H]12)c1csc(N)n1)C(=O)O [Compound 4],,,,,,> 32 µg/mL,> 32 µg/mL,> 32 µg/mL,> 32 µg/mL,> 32 µg/mL,> 32 µg/mL,> 32 µg/mL,> 32 µg/mL,> 32 µg/mL,> 32 µg/mL,16 µg/mL,> 32 µg/mL,> 32 µg/mL,> 32 µg/mL,> 32 µg/mL,

# The next lines start with results.
"MIC [4, 9]","MIC [4, 10]","MIC [4, 11]","MIC [4, 12]","MIC [4, 13]",SMILES,MIC ([1]; CRAB strain No. 100085),MIC ([1]; CRAB strain No. 100333),MIC ([1]; CRAB strain No. 110440),MIC ([1]; CRAB strain No. 110477),MIC ([1]; CRAB strain No. 110517),MIC ([2]; CRE strain No. 100109),MIC ([2]; CRE strain No. 100186),MIC ([2]; CRE strain No. 110502),MIC ([2]; CRE strain No. 110525),MIC ([2]; CRE strain No. 311277),MIC ([3]; CRPA strain No. 100110),MIC ([3]; CRPA strain No. 110163),MIC ([3]; CRPA strain No. 110224),MIC ([3]; CRPA strain No. 110358),MIC ([3]; CRPA strain No. 110390),also measured
0.25 µg/mL,0.0625 µg/mL,8 µg/mL,0.125 µg/mL,2 µg/mL,CC(C)(O/N=C(\C(=O)N[C@@H]1C(=O)N2C(C(=O)O)=C(C[N+]3(CCNC(=O)c4ccc5cc(O)c(O)cc5c4)CCCC3)CS[C@H]12)c1csc(N)n1)C(=O)O [Compound 8],,,,,,,,,,,,,,,,"MIC [5]: 0.25 µg/mL; MIC [6]: 0.25 µg/mL; MIC [7, 14]: 2 µg/mL; MIC [7, 15]: 1 µg/mL; MIC [7, 16]: 0.25 µg/mL; MIC [7, 17]: 2 µg/mL; MIC [7, 18]: 2 µg/mL; MIC [8, 19]: 1 µg/mL; MIC ([8]; FDA-CDC AR-BANK #0441 (KPC-2)): 4 µg/mL; MIC [8, 20]: 4 µg/mL; MIC [8, 21]: 0.25 µg/mL"
2 µg/mL,0.25 µg/mL,> 32 µg/mL,0.125 µg/mL,4 µg/mL,CC(C)(O/N=C(\C(=O)N[C@@H]1C(=O)N2C(C(=O)O)=C(C[N+]3(CCNC(=S)c4ccc(O)c(O)c4Cl)CCCC3)CS[C@H]12)c1csc(N)n1)C(=O)O [Compound 7],,,,,,,,,,,,,,,,"MIC [5]: 0.125 µg/mL; MIC [6]: 0.125 µg/mL; MIC [7, 14]: 1 µg/mL; MIC [7, 15]: 1 µg/mL; MIC [7, 16]: 0.5 µg/mL; MIC [7, 17]: 2 µg/mL; MIC [7, 18]: 4 µg/mL; MIC [8, 19]: 8 µg/mL; MIC ([8]; FDA-CDC AR-BANK #0441 (KPC-2)): 8 µg/mL; MIC [8, 20]: 32 µg/mL; MIC [8, 21]: 1 µg/mL"
> 32 µg/mL,> 32 µg/mL,> 32 µg/mL,> 32 µg/mL,> 32 µg/mL,CC(C)(O/N=C(\C(=O)N[C@@H]1C(=O)N2C(C(=O)O)=C(C[N+]3(CCNC(=N)c4ccc(O)c(O)c4Cl)CCCC3)CS[C@H]12)c1csc(N)n1)C(=O)O [Compound 9],,,,,,,,,,,,,,,,"MIC [5]: > 32 µg/mL; MIC [6]: 16 µg/mL; MIC [7, 14]: > 32 µg/mL; MIC [7, 15]: 16 µg/mL; MIC [7, 16]: > 32 µg/mL; MIC [7, 17]: > 32 µg/mL; MIC [7, 18]: > 32 µg/mL; MIC [8, 19]: > 32 µg/mL; MIC ([8]; FDA-CDC AR-BANK #0441 (KPC-2)): > 32 µg/mL; MIC [8, 20]: > 32 µg/mL; MIC [8, 21]: > 32 µg/mL"
